In publication PMC8270315, “Combination of Heme Oxygenase-1 Inhibition and Sigma Receptor Modulation for Anticancer Activity” (Molecules, 2021):
Like-named read-outs stand apart in the source and are kept apart here.

How the values were obtained:
DU145 cells = assay: MTT cell viability assay, DU145 cells; type: cell-based, human; details: DU145, single compound 10 μM, 72 h
From the text: In some types of human prostate and brain cancers, both HO-1 and σRs are overexpressed, influencing cancer cell proliferation. Consequently, σR ligands and HO-1 inhibitors may have anticancer activity. Literature data highlight the potential antiproliferative activity of various σ1R ligands in highly diffusive glioblastoma and prostate cancer cells, likely by interfering with the progression of cell cycle and decreasing the migration of cancer cells. Likewise, HO-1 inhibition hinders cancer progression, mainly by decreasing CO-mediated angiogenesis and disrupting the antioxidant HO-1 activity. […] Cytotoxicity of all new and previous synthesized compounds were evaluated in vitro via MTT assay. The cell viability of DU145 and U87-MG cells was assessed after 72 h of continuous treatment with all tested compounds, at the concentrations of 1, 10, and 50 μM. […]
The cytotoxicity of HO-1 inhibitors and σR ligands previous synthesized compounds as well as novel HO-1/σR hybrids compounds were evaluated. The effect on cell viability was assessed by performing MTT assay. […] Finally, dimethyl-sulfoxide (DMSO) was used to dissolve formazan salts and absorbance was measured at 450 nm in a microplate reader (Biotek Synergy-HT). […]

U87MG cells = assay: MTT cell viability assay, U87MG cells; type: cell-based, human; details: for effect on U87MG cell viability (in words): U87MG, 1, 10 and 50 μM; for effect of co-administration on U87MG cell viability (in words): 10 μM σR ligand plus 10 μM HO-1 inhibitor, compared with σR ligand alone
Method: In particular, we used the human glioblastoma cell line U87MG (ATCCC number #HTB-14) and the prostate cancer cell line DU145 (ATCC HTB-81). These cell lines were obtained from the American Type Culture Collection (ATCC, Rockville, Md., USA). Cells were cultured in Dulbecco’s modified Eagle’s medium (DMEM) supplemented with 10% of heat-inactivated fetal bovine serum (FBS), 100 U/mL penicillin and 100-μg/mL streptomycin (Sigma-Aldrich, Steinheim, Germany) and incubated at 37 °C in a humidified atmosphere with 5% CO2.
The cytotoxicity of HO-1 inhibitors and σR ligands previous synthesized compounds as well as novel HO-1/σR hybrids compounds were evaluated. The effect on cell viability was assessed by performing MTT assay. Cells were seeded into 96-well plates at a density of 7.0 × 10^3 cells/well in 100 µL of culture medium. The day after, cells were treated with each molecule at three different concentrations (1 µM, 10 µM and 50 µM) for 72 h. Following treatments, 0.5 mg/mL of 3-[4,5-dimethylthiazol-2-yl]-2,5-diphenyltetrazolium bromide (MTT) (Sigma-Aldrich) was added to each well and incubated for 4 h at 37 °C. Finally, dimethyl-sulfoxide (DMSO) was used to dissolve formazan salts and absorbance was measured at 450 nm in a microplate reader (Biotek Synergy-HT). Six replicate wells were used for each group.

σ2R [1] = target: T1, σ2R (Rattus norvegicus, UniProt Q5U3Y7); details: Table S1; ref [4, 5] of the supplement; cited from earlier work
T1 construct: from tissue; host or cells: liver membranes of Sprague-Dawley rats (animals from ENVIGO RMS S.R.L.)
T1 sequence (Q5U3Y7 1-176): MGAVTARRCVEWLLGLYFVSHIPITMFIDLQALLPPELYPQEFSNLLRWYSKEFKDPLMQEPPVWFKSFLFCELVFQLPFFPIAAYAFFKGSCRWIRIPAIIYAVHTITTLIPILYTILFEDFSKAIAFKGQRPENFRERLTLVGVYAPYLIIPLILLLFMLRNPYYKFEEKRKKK

HO-1 = target: T2, HO-1 (Rattus norvegicus, UniProt P06762); assay: HO-1 inhibition, bilirubin formation in rat spleen microsomal fraction; type: biochemical; details: Table S1
T2 construct: selected in order to use the most native (i.e., closest to in vivo) forms of HO-1; from tissue; host or cells: spleen microsomal fraction of male Sprague-Dawley rats
T2 sequence (P06762 1-289): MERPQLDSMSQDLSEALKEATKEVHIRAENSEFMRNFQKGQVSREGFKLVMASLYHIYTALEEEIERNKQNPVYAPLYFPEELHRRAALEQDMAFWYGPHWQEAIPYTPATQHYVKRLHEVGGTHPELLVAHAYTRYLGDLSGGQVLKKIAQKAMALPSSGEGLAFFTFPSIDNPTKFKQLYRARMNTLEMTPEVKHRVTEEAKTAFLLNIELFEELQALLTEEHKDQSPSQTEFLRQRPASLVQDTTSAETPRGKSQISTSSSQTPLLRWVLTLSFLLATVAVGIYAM
Method: The new HO-1/σRs hybrids 1–4 were tested to evaluate their HO-1 inhibitory activity. The enzyme was obtained from the microsomal fractions of rat spleen. Determination of HO-1 activity was performed by measuring the bilirubin formation using the difference in absorbance at 464–530 nm, as reported in the experimental section. Compounds LS/0, LS4/28, LS6/42 and azalanstat were used as reference substances. We focused our attention on HO-1, since only this inducible isoform is involved in tumorigenesis and in tumor progression.
Microsomal fractions obtained from rat spleen were used as sources of HO-1. Microsomal preparations obtained by differential centrifugation, were selected in order to use the most native (i.e., closest to in vivo) forms of HO-1. The experiments reported in the present paper complied with current Italian law and met the guidelines of the Institutional Animal Care and Use Committee of Ministry of Health (Directorate General for Animal Health and Veterinary Medicines) (Italy). The experiments were performed in male Sprague–Dawley albino rats (150 g body weight and age 45 d). They had free access to water and were kept at room temperature with a natural photo-period (12 h light, 12 h dark cycle). For measuring HO-1 activities, each rat was sacrificed and their spleens were excised and weighed. A homogenate (15%, w/v) of spleens pooled from four rats was prepared in ice-cold HO-homogenizing buffer (50 mM Tris buffer, pH 7.4, containing 0.25 M sucrose) using a Potter–Elvehjem homogenizing system with a Teflon pestle. The microsomal fraction of rat spleen homogenate was obtained by centrifugation at 10,000× g for 20 min at 4 °C, followed by centrifugation of the supernatant at 100,000× g for 60 min at 4 °C. The 100,000g pellet (microsomes) was resuspended in an 100 mM potassium phosphate buffer, pH 7.8, containing 2 mM MgCl2 with a Potter–Elvehjem homogenizing system. The rat spleen microsomal fractions were divided into equal aliquots, placed into microcentrifuge tubes, and stored at −80 °C for up to 2 months.
Biliverdin reductase was obtained from liver cytosol. Rat liver was perfused through the hepatic portal vein with cold 0.9% NaCl, then it was cut and flushed with 2 × 20 mL of ice-cold PBS to remove all of the blood. Liver tissue was homogenized in 3 volumes of solution containing 1.15% KCl w/v and Tris buffer 20 mM, pH 7.8 on ice. Homogenates were centrifuged at 10,000× g, for 20 min at 4 °C. Supernatant was decanted and centrifuged at 100,000× g for 1 h at 4 °C to sediment the microsomes. The 100,000× g supernatant was saved and then stored in small amounts at −80 °C after its protein concentration was measured.
The HO-1 activities were determined by measuring the bilirubin formation using the difference in absorbance at 464–530 nm. Reaction mixtures (500 µL) contained 20 mM Tris–HCl, pH 7.4, (1 mg/mL) microsomal extract, 0.5–2 mg/mL biliverdin reductase, 1 mM NADPH, 2 mM glucose 6-phosphate (G6P), 1 U G6P dehydrogenase, 25 μM hemin, and 10 µL of DMSO (or the same volume of DMSO solution of test compounds to a final concentration of 100, 10, and 1 µM). Samples were incubated for 60 min at 37 °C in a circulating water bath in the dark. Reactions were stopped by adding the same volume of chloroform. After recovering the chloroform phase, the amount of bilirubin formed was measured with a double-beam spectrophotometer as OD464–530 nm (extinction coefficient, 40 mM/cm^−1 for bilirubin). […]

σ1R = target: T3, σ1R (Cavia porcellus, UniProt Q60492); assay: σ1R radioligand binding assay, [3H](+)-pentazocine, guinea pig brain cortex membranes; details: for inhibition at 10 µM: read-out: σ1R % of inhibition at 10 μM
T3 construct: The thawed membrane preparation of guinea pig brain cortex was incubated with increasing concentrations of test compounds; from tissue; host or cells: brain cortex membranes of male Dunkin-Hartley guinea pigs (animals from ENVIGO RMS S.R.L.)
T3 sequence (Q60492 whole entry): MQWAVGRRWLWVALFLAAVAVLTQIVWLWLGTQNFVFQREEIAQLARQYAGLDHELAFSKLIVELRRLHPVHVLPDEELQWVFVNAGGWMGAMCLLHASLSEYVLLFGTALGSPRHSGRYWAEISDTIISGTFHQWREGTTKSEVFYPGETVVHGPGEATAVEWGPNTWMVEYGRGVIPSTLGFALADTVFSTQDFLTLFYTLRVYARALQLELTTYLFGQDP
Method: (§1) All new synthesized HO-1/σ hybrids 1–4 were evaluated for affinity at both the σ1R and the σ2R, through radioligand binding assay.
(§2) Brain and liver homogenates for σ1R and σ2R binding assays were prepared from male Dunkin–Hartley guinea pigs and Sprague–Dawley rats, respectively, (ENVIGO RMS S.R.L., Udine, Italy) as previously reported [54]. In vitro σ1R ligand binding assays were carried out in Tris buffer (50 mM, pH 7.4) for 150 min at 37 °C. […] Bound and free radioligand were separated by fast filtration under reduced pressure using a Millipore filter apparatus through Whatman GF 6 glass fiber filters, which were presoaked in a 0.5% poly(ethyleneimine) water solution. Each filter paper was rinsed three times with ice-cold Tris buffer (50 mM, pH 7.4), dried at rt, and incubated overnight with scintillation fluid into pony vials. The bound radioactivity has been determined using a liquid scintillation counter (Beckman LS 6500) [55]. In vitro σ2R ligand binding assays were carried out in Tris buffer (50 mM, pH 8.0) for 120 min at rt. […] Bound and free radioligand were separated by fast filtration under reduced pressure using a Millipore filter apparatus through Whatman GF 6 glass fiber filters, which were presoaked in a 0.5% poly(ethyleneimine) water solution. Each filter paper was rinsed three times with ice-cold Tris buffer (10 mM, pH 8), dried at rt, and incubated overnight with scintillation fluid into pony vials. The bound radioactivity was determined using a liquid scintillation counter (Beckman LS 6500) [56]. The Ki-values were calculated with the program GraphPad Prism® 7.0 (GraphPad Software, San Diego, CA, USA). The Ki-values are given as mean value ± SD from at least two independent experiments performed in duplicate.

σ2R [2] = target: T1, σ2R; assay: σ2R radioligand binding assay, [3H]DTG, rat liver membranes
Method: as §1, §2

HO-2 = tested on: HO-2; set-up: method as in PMID 29783634, PMID 23867390, PMID 32056044, PMID 32168943, PMID 32222619; details: Figure 1, previously demonstrated; cited from earlier work

## O=C(CCCN1CCC(O)(c2ccc(Cl)cc2)CC1)c1ccc(F)cc1 [Haloperidol, haloperidol]
DU145 cells
  reduction of cell viability: about 50%
U87MG cells; 72 h, MTT
  effect on U87MG cell viability (in words): high efficacy in downregulation of cell viability

## COc1ccc(CN2CCN(C(=O)CCC3CCCCC3)CC2)cc1 [SI1/13]
σ2R [1]
  Ki: 1.42 µM
U87MG cells; U87MG
  effect of co-administration on U87MG cell viability (in words): increased by the addition of all the tested HO-1 inhibitors
U87MG cells; 72 h, MTT
  effect on U87MG cell viability (in words): high efficacy in downregulation of cell viability

## O=C(c1ccc(OCCCCn2ccnc2)cc1)N1CCN(Cc2ccccc2)CC1 [Compound 1, (4-(4-(1H-imidazol-1-yl)butoxy)phenyl)(4-benzylpiperazin-1-yl)methanone]
HO-1
  IC50: 230 ± 5.1 µM
σ1R
  Ki: > 10 µM
  inhibition at 10 µM: 90%
σ2R [2]
  Ki: > 10 µM
  inhibition at 10 µM: 54%
U87MG cells; 72 h, MTT
  effect on U87MG cell viability (in words): reduced U87MG cell viability at all concentrations, especially at 50 μM

## OC(Cn1ccnc1)c1cccc(-c2ccccc2)c1 (stereo not shown) [LS4/28]
HO-2
  IC50: > 100 µM
U87MG cells; 72 h, MTT
  effect on U87MG cell viability (in words): did not affect U87MG cell viability

## O=C(Cc1ccc(OCCCCn2ccnc2)cc1)N1CCN(Cc2ccccc2)CC1 [Compound 2, 2-(4-(4-(1H-imidazol-1-yl)butoxy)phenyl)-1-(4-benzylpiperazin-1-yl)ethan-1-one]
HO-1
  IC50: 216 ± 3.6 µM
σ1R
  Ki: > 10 µM
  inhibition at 10 µM: 73%
σ2R [2]
  Ki: > 10 µM
  inhibition at 10 µM: 67%
U87MG cells; 72 h, MTT
  effect on U87MG cell viability (in words): reduced U87MG cell viability at all concentrations, especially at 50 μM

## O=C(CCc1ccc(OCCCCn2ccnc2)cc1)N1CCN(Cc2ccccc2)CC1 [Compound 3, 3-(4-(4-(1H-imidazol-1-yl)butoxy)phenyl)-1-(4-benzylpiperazin-1-yl)propan-1-one]
HO-1
  IC50: 162 ± 1.8 µM
σ1R
  Ki: > 10 µM
  inhibition at 10 µM: 78%
σ2R [2]
  Ki: > 10 µM
  inhibition at 10 µM: 66%
U87MG cells; 72 h, MTT
  effect on U87MG cell viability (in words): less efficacy than the control at 1 μM

## OC(Cn1ccnc1)c1ccc(CCc2ccc(Br)cc2)cc1 (stereo not shown) [LS6/42]
HO-2
  IC50: > 100 µM
U87MG cells; U87MG, single compound 10 μM, 72 h, MTT
  reduction of cellular viability: about 50%

## Brc1cccc(OCCCCn2ccnc2)c1 [LS/0]
HO-2
  IC50: 2.2 ± 0.2 µM
U87MG cells; 72 h, MTT
  effect on U87MG cell viability (in words): significantly reduce cell viability only at 50 μM

## O=C(CCCc1ccc(OCCCCn2ccnc2)cc1)N1CCN(Cc2ccccc2)CC1 [Compound 4, 4-(4-(4-(1H-imidazol-1-yl)butoxy)phenyl)-1-(4-benzylpiperazin-1-yl)butan-1-one]
HO-1
  IC50: 87.7 ± 1.3 µM
  IC50 HO-1: the most potent compound among the series
σ1R
  Ki: > 10 µM
  inhibition at 10 µM: 55%
σ2R [2]
  Ki: 4.62 µM
U87MG cells; 72 h, MTT
  effect on U87MG cell viability (in words): reduced U87MG cell viability at all concentrations, especially at 50 μM

## COc1ccc(CN2CCN(C(=O)CCc3ccccc3)CC2)cc1 [RFB/13]
U87MG cells; U87MG
  effect of co-administration on U87MG cell viability (in words): significantly reduced for compound RFB/13 only when combined with LS4/28 or LS6/42
U87MG cells; 72 h, MTT
  effect on U87MG cell viability (in words): significantly reduce cell viability only at 50 μM
